Reference: patent publication US10669283B2, “Compound and pharmacologically acceptable salt thereof” (MEIJI SEIKA PHARMA CO., LTD., priority 2016, dated 2020)

test system: PDE4; assay: PDE4 inhibition, scintillation proximity assay (SPA); assay type: biochemical; settings: scintillation proximity assay (SPA); evaluated as classes A, B, C; read-out: PDE4 Inhibitory Activity (concentration for the inhibition rate of 50%);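 on PDE4 Inhibitory Activity (concentration for the inhibition rate of 50%): A below 100 nM B 100 to below 1000 nM C 1000 nM or more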
Method in brief: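 Compound pre-diluted 1:10 in 50 mM Tris-HCl pH 7.4, 8.3 mM MgCl2, 1.7 mM EGTA, 3 mg/mL BSA, then incubated with PDE4 and [2,8-3H]-cAMP for 120 min at room temperature. Product captured on ZnSO4-containing YSi-SPA beads for 15 min; radioactivity counted against no-enzyme blank and DMSO control.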

Compared with `O=C(c1cc(-c2nccs2)c2oc(N3CC4CCC(C3)N4)nc2c1OC(F)(F)F)N1CC(O)(C(F)(F)F)C1` [Example 194, (2-(3,8-Diazabicyclo[3.2.1]octan-3-yl)-7-(thiazol-2-yl)-4-(trifluoromethoxy)benzo[d]oxazol-5-yl)(3-hydroxy-3-(trifluoromethyl)azetidin-1-yl)methanone], `CC(=O)c1cc(-c2nccs2)c2oc(N3CC4CCC(C3)N4)nc2c1C(F)(F)F` [Example 179, 1-(2-(3,8-Diazabicyclo[3.2.1]octan-3-yl)-7-(thiazol-2-yl)-4-(trifluoromethyl)benzo[d]oxazol-5-yl)ethan-1-one] is lower in IC50: 100 to 1000 nM for the first, < 100 nM for the second.

`COC(c1cc(-c2nccs2)c2oc(N3CC4CCC(C3)N4)nc2c1)C(F)F` (centres unmarked) [Example 105, 2-(3,8-Diazabicyclo[3.2.1]octan-3-yl)-5-(2,2-difluoro-1-methoxyethyl)-7-(thiazol-2-yl)benzo[d]oxazole] and `COC(C)c1cc(-c2nccs2)c2oc(N3CC4CCC(C3)N4)nc2c1` (centres unmarked) [Example 110, 2-(3,8-Diazabicyclo[3.2.1]octan-3-yl)-5-(1-methoxyethyl)-7-(thiazol-2-yl)benzo[d]oxazole] cannot be ordered by IC50: < 100 nM for the first, < 100 nM for the second.

`CS(=O)(=O)c1cc(-c2nccs2)c2oc(N3CC4CCCC(C3)N4)nc2c1` [Example 47, 2-(3,9-Diazabicyclo[3.3.1]nonan-3-yl)-5-(methylsulfonyl)-7-(thiazol-2-yl)benzo[d]oxazole] and `CS(=O)(=O)c1cc(-c2nccs2)c2oc(N3CC4CC(C3)N4)nc2c1` [Example 46, 2-(3,6-Diazabicyclo[3.1.1]heptan-3-yl)-5-(methylsulfonyl)-7-(thiazol-2-yl)benzo[d]oxazole] cannot be ordered by IC50: < 100 nM for the first, < 100 nM for the second.

`FC(F)(F)Oc1ccc(-c2nccs2)c2oc(N3CC4CCC(C3)N4)nc12` [Example 28, 2-(3,8-Diazabicyclo[3.2.1]octan-3-yl)-7-(thiazol-2-yl)-4-(trifluoromethoxy)benzo[d]oxazole] and `CCOC(c1ccc(-c2nccs2)c2oc(N3CC4CCC(C3)N4)nc12)C(F)(F)F` (centres unmarked) [Example 220, 2-(3,8-Diazabicyclo[3.2.1]octan-3-yl)-4-(1-ethoxy-2,2,2-trifluoroethyl)-7-(thiazol-2-yl)benzo[d]oxazole] cannot be ordered by IC50: < 100 nM for the first, < 100 nM for the second.

`C[S+]([O-])c1cc(-c2nccs2)c2oc(N3CC4CC(C3)N4)nc2c1` (centres unmarked) [Example 43, 2-(3,6-Diazabicyclo[3.1.1]heptan-3-yl)-5-(methylsulfinyl)-7-(thiazol-2-yl)benzo[d]oxazole] and `O=C(c1cc(-c2nccs2)c2oc(N3CC4CCC(C3)N4)nc2c1)N1CCC1` [Example 97, (2-(3,8-Diazabicyclo[3.2.1]octan-3-yl)-7-(thiazol-2-yl)benzo[d]oxazol-5-yl)(azetidin-1-yl)methanone] cannot be ordered by IC50: < 100 nM for the first, < 100 nM for the second.

`COC(C)(C)c1cc(-c2nccs2)c2oc(N3CC4CCC(C3)N4)nc2c1C(F)(F)F` [Example 171, 2-(3,8-Diazabicyclo[3.2.1]octan-3-yl)-5-(2-methoxypropan-2-yl)-7-(thiazol-2-yl)-4-(trifluoromethyl)benzo[d]oxazole] and `CC(O)(c1cc(-c2nccs2)c2oc(N3CC4CCCC(C3)N4)nc2c1)C(F)(F)F` (centres unmarked) [Example 161, 2-(2-(3,9-Diazabicyclo[3.3.1]nonan-3-yl)-7-(thiazol-2-yl)benzo[d]oxazol-5-yl)-1,1,1-trifluoropropan-2-ol] cannot be ordered by IC50: < 100 nM for the first, < 100 nM for the second.

`OC(c1cc(-c2nccs2)c2oc(N3CC4CCC(C3)N4)nc2c1)C(F)(F)F` (centres unmarked) [Example 138, 1-(2-(3,8-Diazabicyclo[3.2.1]octan-3-yl)-7-(thiazol-2-yl)benzo[d]oxazol-5-yl)-2,2,2-trifluoroethan-1-ol] and `CC(=O)OC(c1cc(-c2nccs2)c2oc(N3CC4CCC(C3)N4)nc2c1)C(F)(F)F` (centres unmarked) [Example 141, 1-(2-(3,8-Diazabicyclo[3.2.1]octan-3-yl)-7-(thiazol-2-yl)benzo[d]oxazol-5-yl)-2,2,2-trifluoroethyl acetate] cannot be ordered by IC50: < 100 nM for the first, < 100 nM for the second.

`FC(F)(F)COC(c1ccc(-c2nccs2)c2oc(N3CC4CCC(C3)N4)nc12)C(F)(F)F` (centres unmarked) [Example 221, 2-(3,8-Diazabicyclo[3.2.1]octan-3-yl)-7-(thiazol-2-yl)-4-(2,2,2-trifluoro-1-(2,2,2-trifluoroethoxy)ethyl)benzo[d]oxazole] and `CC(C)(O)C(C)(C)OC(c1ccc(-c2nccs2)c2oc(N3CC4CC(C3)N4)nc12)C(F)(F)F` (centres unmarked) [Example 280, 3-(1-(2-(3,6-Diazabicyclo[3.1.1]heptan-3-yl)-7-(thiazol-2-yl)benzo[d]oxazol-4-yl)-2,2,2-trifluoroethoxy)-2,3-dimethylbutan-2-ol] cannot be ordered by IC50: < 100 nM for the first, < 100 nM for the second.

`CCOC(=O)c1ccc(-c2nccs2)c2oc(N3CC4CCCC(C3)N4)nc12` [Example 114, Ethyl 2-(3,9-diazabicyclo[3.3.1]nonan-3-yl)-7-(thiazol-2-yl) benzo[d]oxazole-4-carboxylate] and `c1csc(-c2ccc(-c3nccs3)c3oc(N4CC5CCC(C4)N5)nc23)n1` [Example 85, 2-(3,8-Diazabicyclo[3.2.1]octan-3-yl)-4,7-di(thiazol-2-yl)benzo[d]oxazole] cannot be ordered by IC50: < 100 nM for the first, < 100 nM for the second.

`COC(c1ccc(-c2nccs2)c2oc(N3CC4CC(C3)N4)nc12)C(F)F` (centres unmarked) [Example 130, 2-(3,6-Diazabicyclo[3.1.1]heptan-3-yl)-4-(2,2-difluoro-1-methoxyethyl)-7-(thiazol-2-yl)benzo[d]oxazole] and `CC(O)c1cc(-c2nccs2)c2oc(N3CC4CC(C3)N4)nc2c1OC(F)(F)F` (centres unmarked) [Example 203, 1-(2-(3,6-Diazabicyclo[3.1.1]heptan-3-yl)-7-(thiazol-2-yl)-4-(trifluoromethoxy)benzo[d]oxazol-5-yl)ethan-1-ol] cannot be ordered by IC50: < 100 nM for the first, < 100 nM for the second.

`FC(F)(F)Oc1c(Cl)cc(-c2ccccn2)c2oc(N3CC4CCC(C3)N4)nc12` [Example 7, 2-(3,8-Diazabicyclo[3.2.1]octan-3-yl)-5-chloro-7-(pyridin-2-yl)-4-(trifluoromethoxy)benzo[d]oxazole] and `FC(F)(F)c1c(Cl)cc(-c2ccccn2)c2oc(N3CC4CCC(C3)N4)nc12` [Example 11, 2-(3,8-Diazabicyclo[3.2.1]octan-3-yl)-5-chloro-7-(pyridin-2-yl)-4-(trifluoromethyl)benzo[d]oxazole] cannot be ordered by IC50: < 100 nM for the first, < 100 nM for the second.

With `OC(c1cc(-c2cscn2)c2oc(N3CC4CC(C3)N4)nc2c1OC(F)(F)F)C(F)F` (centres unmarked) [Example 300, 1-(2-(3,6-Diazabicyclo[3.1.1]heptan-3-yl)-7-(thiazol-4-yl)-4-(trifluoromethoxy)benzo[d]oxazol-5-yl)-2,2-difluoroethan-1-ol] the IC50 was < 100 nM.

same assay, conditions: scintillation proximity assay; class symbols; read-out: PDE4 Inhibitory Activity

`CC(C)C(O)C(F)(F)Oc1ccc(-c2nccs2)c2oc(N3CC4CC(C3)N4)nc12` (centres unmarked) [Example 362, 1-((2-(3,6-diazabicyclo [3.1.1]heptan-3-yl)-7-(thiazol-2-yl)benzo[d]oxazol-4-yl)oxy)-1,1-difluoro-3-methylbutan-2-ol] and `CC(O)(O)C(F)(F)Oc1ccc(-c2nccs2)c2oc(N3CC4CC(C3)N4)nc12` [Example 377, 1-((2-(3,6-diazabicyclo[3.1.1]heptan-3-yl)-7-(thiazol-2-yl)benzo[d]oxazol-4-yl)oxy)-1,1-difluoropropane-2,2-diol] cannot be ordered by IC50: < 100 nM for the first, < 100 nM for the second.

With `CSc1ccc(-c2nccs2)c2oc(N3CC4CC(C3)N4)nc12` [Example 345, 2-(3,6-diazabicyclo[3.1.1]heptan-3-yl)-4-(methylthio)-7-(thiazol-2-yl)benzo [d]oxazole] the IC50 was < 100 nM.
